From patent publication US6723897B2, “Methods for controlling gibberellin levels” (Monsanto Technology, LLC, priority 1998, dated 2004)

Legend:
Type in all cases: in vivo, Glycine max
[1] = tested on: wild-type soybean line A3237; assay: Experiment II second greenhouse test, seed imbibition, wild-type soybean; details: 0.0025 mg/ml; seeds imbibed 6 hours
Description: (The compounds are tested in Experiment I at only one concentration, i.e., 0.25 mg/ml). Test tubes contained […] of ethanol solution per tube. Final volumes are made up to 30 ml with deionized water. After shaking, the treatment solutions (15 ml each) are transferred to each of two 50 ml test tubes. […] Twenty seeds are used in each treatment. Dry seed, ethanol/water-imbibed seed (1% ethanol in water, v/v), and water-imbibed seeds are included as controls. Seeds are imbibed for 6 hours in the test solutions, then planted in bread pans containing Metromix 350 (The Scotts Company, Marysville, Ohio), and covered with 0.5″ Metro-mix. Covered pans are transferred to the greenhouse and subirrigated. Illumination is at a light intensity of 300-400 μmolm^−2s^−1 photosynthetic photon flux; 16 hours light/8 hours dark. Subsequent waterings are also through sub-irrigation until the test is terminated three weeks later. Observations included the number of dwarf, intermediate, and tall plants; plant height; uniformity of rescue; and any visual effects. Digital photographs are also taken.

[2] = tested on: transgenic line 719 soybean; assay: Field trial of seed coatings under soil compaction / different soils, GA-deficient soybean; details: for Count (emergence) / Dwarfs (number of dwarfs not rescued) / Dwarfs (number not rescued): Line 719
[3] = tested on: non-transgenic soybean line A4922; assay: Field trial of seed coatings under soil compaction / different soils, wild-type soybean; details: for Count (emergence) / Height (total plant height): A4922
Description: The second trial (data reported in Tables 22-24) tested the precursors under conditions of soil compaction.
As noted above, the second trial tested the noted precursors under conditions of soil compaction. These experiments are performed in the same manner as in the first trial, except that the soil is compacted with an all-terrain vehicle.
“Height” equals total plant height in cm.

[4] = Heavy soil - Loose, target rate 0.5 μg/seed, Table 23
[5] = Heavy soil - Loose, target rate 2.0 μg/seed, Table 23
[6] = Heavy soil - Loose, target rate 4.0 μg/seed, Table 23
[7] = Heavy soil - compacted, target rate 0.5 μg/seed, Table 23
[8] = Heavy soil - compacted, target rate 2.0 μg/seed, Table 23
[9] = Heavy soil - compacted, target rate 4.0 μg/seed, Table 23
[10] = Heavy soil - loose, target rate 0.5 μg/seed, Table 22
[11] = Heavy soil - loose, target rate 2.0 μg/seed, Table 22
[12] = Light soil - Compacted, target rate 0.5 μg/seed, Table 22
[13] = Light soil - Compacted, target rate 2.0 μg/seed, Table 22
[14] = Light soil - Loose, target rate 0.5 μg/seed, Table 24
[15] = Light soil - Loose, target rate 2.0 μg/seed, Table 24
[16] = Light soil - Loose, target rate 4.0 μg/seed, Table 24
[17] = Light soil - compacted, target rate 0.5 μg/seed, Table 24
[18] = Light soil - compacted, target rate 2.0 μg/seed, Table 24
[19] = Light soil - compacted, target rate 4.0 μg/seed, Table 24

With C=C1C[C@]23C[C@@]1(O)CC[C@H]2[C@@]12C=C[C@H](OC(C)=O)[C@@](C)(C(=O)O1)[C@H]2[C@@H]3C(=O)O [GA3-3-acetate] the “Significant Visual Observations on Line A3237” value [1] was “Normal height”, the “Count (emergence)” value [2, 4] was 31.3 bcd and the “Dwarfs (number of dwarfs not rescued)” value [2, 4] was 0.3 de. The “Count (emergence)” value [2, 5] was 27.3 cd, the “Dwarfs (number of dwarfs not rescued)” value [2, 5] was 0 e and the “Count (emergence)” value [2, 6] was 18.3 ef. The “Dwarfs (number of dwarfs not rescued)” value [2, 6] was 0 e, the “Count (emergence)” value [2, 7] was 10.3 c-f and the “Dwarfs (number of dwarfs not rescued)” value [2, 7] was 0.3 cd. For the same compound, the “Count (emergence)” value [2, 8] was 7.3 efg, the “Dwarfs (number of dwarfs not rescued)” value [2, 8] was 0 days and the “Count (emergence)” value [2, 9] was 2.0 g. The “Dwarfs (number of dwarfs not rescued)” value [2, 9] was 0 days, the “Count (emergence)” value [2, 10] was 31 bcd and the “Dwarfs (number of dwarfs not rescued)” value [2, 10] was 3.3 c. The “Count (emergence)” value [2, 11] was 27 cd, the “Dwarfs (number of dwarfs not rescued)” value [2, 11] was 0.3 de and the “Count (emergence)” value [2, 12] was 25 def. For the same compound, the “Dwarfs (number of dwarfs not rescued)” value [2, 12] was 0 days, the “Count (emergence)” value [2, 13] was 22 efg and the “Dwarfs (number of dwarfs not rescued)” value [2, 13] was 0 days. For the same compound, the “Count (emergence)” value [2, 14] was 45.3 ab, the “Dwarfs (number not rescued)” value [2, 14] was 0.3 e and the “Count (emergence)” value [2, 15] was 43.3 ab. For the same compound, the “Dwarfs (number not rescued)” value [2, 15] was 0 c, the “Count (emergence)” value [2, 16] was 42.7 ab and the “Dwarfs (number not rescued)” value [2, 16] was 0 c. The “Count (emergence)” value [2, 17] was 25.3 def, the Dwarfs (number not rescued) [2, 17] was 0 and the “Count (emergence)” value [2, 18] was 22.0 efg. For the same compound, the Dwarfs (number not rescued) [2, 18] was 0, the “Count (emergence)” value [2, 19] was 33.7 a-e and the Dwarfs (number not rescued) [2, 19] was 0. For the same compound, the “rank of potential for rescuing GA-deficient dwarf soybeans without decreasing emergence” value ([2]; based on the last two field trials) was “GA9>GA5>GA3-3-acetate>GA3>GA12”, the “best to least selectivity order” value ([2]; emergence under soil compaction, margin of selectivity, rescue without overelongation, Table 22) was “GA9>GA5>GA3-3-acetate>GA3” and the “Count (emergence)” value [3, 4] was 29.0 a-d. For the same compound, the “Height (total plant height)” value [3, 4] was 5.3 g·cm·days, the “Count (emergence)” value [3, 5] was 15.3 f and the “Height (total plant height)” value [3, 5] was 6.0 c-f cm. For the same compound, the Count (emergence) [3, 6] was 7, the “Height (total plant height)” value [3, 6] was 8.0 ab cm and the “Count (emergence)” value [3, 7] was 4.0 de. The “Height (total plant height)” value [3, 7] was 5.3 b-e cm, the “Count (emergence)” value [3, 8] was 6.0 cde and the “Height (total plant height)” value [3, 8] was 5.7 bcd cm. For the same compound, the “Count (emergence)” value [3, 9] was 0 e, the “Count (emergence)” value [3, 10] was 29 a-d and the “Height (total plant height)” value [3, 10] was 5.3 g·cm·days. The “Count (emergence)” value [3, 11] was 15 f, the “Height (total plant height)” value [3, 11] was 6.0 c-f cm and the “Count (emergence)” value [3, 12] was 28 bcd. For the same compound, the “Height (total plant height)” value [3, 12] was 6.3 cm·days, the “Count (emergence)” value [3, 13] was 18 def and the “Height (total plant height)” value [3, 13] was 8.7 c cm. The “Count (emergence)” value [3, 14] was 44.3 abc, the “Height (total plant height)” value [3, 14] was 6.3 f cm and the “Count (emergence)” value [3, 15] was 42.0 abc. The “Height (total plant height)” value [3, 15] was 9.7 bc cm, the “Count (emergence)” value [3, 16] was 42.3 abc and the “Height (total plant height)” value [3, 16] was 10.3 b cm. The “Count (emergence)” value [3, 17] was 27.7 cd, the “Height (total plant height)” value [3, 17] was 6.3 cm·days and the “Count (emergence)” value [3, 18] was 18.0 def. The “Height (total plant height)” value [3, 18] was 8.7 c cm, the “Count (emergence)” value [3, 19] was 22.7 dc and the “Height (total plant height)” value [3, 19] was 11.0 ab cm. The “plant height dose/response in wild-type line A4922 (FIG. 40)” value ([3]; in vivo) was “dose/response curves similar to that of GA3”.
